Assay results: EP4603105A1, “PHARMACEUTICAL COMPOSITION CONTAINING CYCLIC COMPOUND HAVING SELECTIVE KRAS INHIBITORY EFFECT AGAINST HRAS AND NRAS” (CHUGAI SEIYAKU KABUSHIKI KAISHA, priority 2022, dated 2024)
*1 amine or outer side, *2 acyl side, *3 side chain or, on linkers, in order; H or OH if unused. Where a SMILES comes first, the peptide text is derived from it. Bridges are numbered along the chain shown (N, C = ends). [ ]: non-standard residue; d: D form. The star is where a group is joined. hPhe(3,5-F2-4-CF3) = N[C@@H](CCc1cc(F)c(C(F)(F)F)c(F)c1)C(=O)O; hPhe(3-Cl-4-CF3) = N[C@@H](CCc1ccc(C(F)(F)F)c(Cl)c1)C(=O)O; NPrPhe(4-CF3) = CCCN[C@@H](Cc1ccc(C(F)(F)F)cc1)C(=O)O; NPrPhe(4-Me) = CCCN[C@@H](Cc1ccc(C)cc1)C(=O)O; X8 = CCCN([C@@H](COCCC(C)C)C(=O)[*:2])[*:1]; Pro(4-spirocPr) = O=C(O)[C@@H]1CC2(CC2)CN1; X16 = O=C([C@@H](N[*:1])C1CC(F)(F)C1)[*:2]; NMeGly(cPent) = CN[C@H](C(=O)O)C1CCCC1; Piperidide(4-Me) = CC1CCN(*)CC1; NMeD = CN[C@@H](CC(=O)O)C(=O)O; NMeL = CN[C@@H](CC(C)C)C(=O)O; Morpholide = C1CN(*)CCO1; NMeA = CN[C@@H](C)C(=O)O; Ac5c = NC1(C(=O)O)CCCC1; Aze = O=C(O)[C@@H]1CCN1; Ac4c = NC1(C(=O)O)CCC1; NEtG = CCNCC(=O)O; Sar = CNCC(=O)O

Columns and labels:
[1] = target: GDP-bound NRAS wild-type protein (Homo sapiens, UniProt P01111); experiment: Binding to NRAS by surface plasmon resonance (SPR), KD and KD ratio to KRAS
GDP-bound NRAS wild-type protein, sequence (P01111 whole entry): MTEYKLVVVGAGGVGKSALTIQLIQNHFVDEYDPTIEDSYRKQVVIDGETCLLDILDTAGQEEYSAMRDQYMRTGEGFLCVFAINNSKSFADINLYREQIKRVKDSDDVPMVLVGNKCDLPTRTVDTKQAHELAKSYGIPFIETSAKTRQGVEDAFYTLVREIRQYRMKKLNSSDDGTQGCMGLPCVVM
Method in brief: (§1)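 Biotinylated GDP-bound RAS was captured at about 100–300 RU. Running buffer: HBS pH 7.4, 10 mM MgCl2, 10 µM GDP, 1 mM DTT, 0.01% Tween 20, 4% DMSO.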

[2] = target: HRAS wild-type protein (Homo sapiens, UniProt P01112); experiment: Binding to HRAS by surface plasmon resonance (SPR), KD and KD ratio to KRAS
HRAS wild-type protein, sequence (P01112 whole entry): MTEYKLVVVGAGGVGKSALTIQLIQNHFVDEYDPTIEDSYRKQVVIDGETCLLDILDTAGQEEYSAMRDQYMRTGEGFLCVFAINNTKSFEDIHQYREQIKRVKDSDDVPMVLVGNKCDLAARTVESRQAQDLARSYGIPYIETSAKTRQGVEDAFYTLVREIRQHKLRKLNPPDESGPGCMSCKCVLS
Method in brief: as §1

[3] = tested on: human lung cancer strain NCI-H441; assay type: cell-based
Method in brief: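 Step one: dispense the test compound in serial DMSO dilutions. Step three: add the reagent and measure […].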

[4] = ratio of KD for GDP-bound NRAS wild-type protein to KD for KRAS
[5] = ratio of KD for HRAS wild-type protein to KD for KRAS
[6] = ratio of the KD value with respect to GDP-bound NRAS wild-type protein to the KD value with respect to KRAS
[7] = ratio of the KD value with respect to HRAS wild-type protein to the KD value with respect to KRAS
[8] = ratio of KD value for GDP-bound NRAS wild-type protein to KD value for KRAS (SPR)
[9] = ratio of KD value for HRAS wild-type protein to KD value for KRAS (SPR)

Row | Compound | IC50 [3] [nM] | NRAS /KRAS [1, 4] | HRAS /KRAS [2, 5] | NRAS /KRAS [1, 6] | HRAS /KRAS [2, 7] | NRAS /KRAS [1, 8] | HRAS /KRAS [2, 9]
1 | CCCN1C(=O)[C@@H]2CCN2C(=O)[C@H](C)N(C)C(=O)[C@H]([C@@H](C)CC)NC(=O)[C@H](CC(C)C)N(C)C(=O)C[C@@H](C(=O)N2CCC(C)CC2)N(C)C(=O)[C@H](C2CCCC2)N(C)C(=O)C2(CCCC2)NC(=O)[C@@H]2CCCN2C(=O)[C@H](CCc2ccc(C(F)(F)F)c(Cl)c2)NC(=O)CN(C)C(=O)[C@@H]1Cc1ccc(C(F)(F)F)cc1 [PP0185] ([NMeL]I[NMeA][Aze][NPrPhe(4-CF3)][Sar][hPhe(3-Cl-4-CF3)]P[Ac5c][NMeGly(cPent)][NMeD]-{Piperidide(4-Me)}; lactam N-11) | 32.2 | C (A compound having a KD ratio of 0.1 or more and less than 3 is denoted as C) | B (a compound having 3 or more and less than 10 is denoted as B) |  |  |  | 
2 | CCCN1C(=O)[C@@H]2CCN2C(=O)[C@H](C)N(C)C(=O)[C@H]([C@@H](C)CC)NC(=O)[C@H](CC(C)C)N(C)C(=O)C[C@@H](C(=O)N2CCOCC2)N(C)C(=O)[C@H](C2CCCC2)N(C)C(=O)C2(CCCC2)NC(=O)[C@@H]2CCCN2C(=O)[C@H](CCc2ccc(C(F)(F)F)c(Cl)c2)NC(=O)CN(CC)C(=O)[C@@H]1Cc1ccc(C)cc1 [PP0058] ([NMeL]I[NMeA][Aze][NPrPhe(4-Me)][NEtG][hPhe(3-Cl-4-CF3)]P[Ac5c][NMeGly(cPent)][NMeD]-Morpholide; lactam N-11) | 25.8 | C (A compound having a KD ratio of 0.1 or more and less than 3 is denoted as C) | C (A compound having a KD ratio of 0.1 or more and less than 3 is denoted as C) |  |  |  | 
3 | CCCN1C(=O)CN(C)C(=O)CNC(=O)[C@H]([C@@H](C)CC)NC(=O)[C@H](CC(C)C)N(C)C(=O)C[C@@H](C(=O)N(C)C)NC(=O)[C@H](C2CCCC2)N(C)C(=O)C2(CCCC2)NC(=O)[C@@H]2CCCN2C(=O)[C@H](CCc2ccc(C(F)(F)F)c(Cl)c2)NC(=O)CN(C)C(=O)[C@@H]1Cc1ccc(C(F)(F)F)cc1 [PP0361] ([NMeL]IG[Sar][NPrPhe(4-CF3)][Sar][hPhe(3-Cl-4-CF3)]P[Ac5c][NMeGly(cPent)]D-NMe2; lactam N-11) | 69 | B (a compound having 3 or more and less than 10 is denoted as B) | C (A compound having a KD ratio of 0.1 or more and less than 3 is denoted as C) |  |  |  | 
4 | CCO[C@@H]1C[C@H]2C(=O)NC3(CC(C)(C)C3)C(=O)N(C)[C@@H](C(CC)CC)C(=O)N(C)[C@H](C(=O)N(C)C)CC(=O)N(C)[C@@H](CC3CCC3)C(=O)N[C@@H]([C@@H](C)CC)C(=O)N(C)CC(=O)N(C)[C@H]3C/C=C\CCN(C3=O)[C@@H](Cc3ccc(C)cc3)C(=O)N(C)CC(=O)N[C@@H](CCc3ccc(C(F)(F)F)c(Cl)c3)C(=O)N2C1 [PP2156] | 20.6 |  |  | AA (a compound having 20 or more is denoted as AA) | A (a compound having 10 or more and less than 20 is denoted as A) |  | 
5 | CCO[C@@H]1C[C@H]2C(=O)NC3(CCC3)C(=O)N(C)[C@@H](C3CCCC3)C(=O)N(C)[C@H](C(=O)N(C)C)CC(=O)N(C)[C@@H](CC)C(=O)N[C@@H]([C@@H](C)CC)C(=O)N(C)CC(=O)N(C)[C@H]3CCCCN(C3=O)[C@@H](Cc3ccc(C(F)(F)F)cc3)C(=O)N(C)CC(=O)N[C@@H](CCc3ccc4sccc4c3)C(=O)N2C1 [PP0887] | 19 | C (A compound having a KD ratio of 0.1 or more and less than 3 is denoted as C) | C (A compound having a KD ratio of 0.1 or more and less than 3 is denoted as C) |  |  |  | 
6 | CCCN1C(=O)CN(C)C(=O)CN(CC)C(=O)[C@H]([C@@H](C)CC)NC(=O)[C@H](CC(C)C)N(C)C(=O)C[C@@H](C(=O)N2CCOCC2)N(C)C(=O)[C@H](C2CCCC2)N(C)C(=O)C2(CCCC2)NC(=O)[C@@H]2CC3(CC3)CN2C(=O)[C@H](CCc2ccc(C(F)(F)F)c(Cl)c2)NC(=O)CN(C)C(=O)[C@@H]1Cc1ccc(C(F)(F)F)cc1 [PP0295] ([NMeL]I[NEtG][Sar][NPrPhe(4-CF3)][Sar][hPhe(3-Cl-4-CF3)][Pro(4-spirocPr)][Ac5c][NMeGly(cPent)][NMeD]-Morpholide; lactam N-11) | 33.2 | B (a compound having 3 or more and less than 10 is denoted as B) | C (A compound having a KD ratio of 0.1 or more and less than 3 is denoted as C) |  |  |  | 
7 | CCCN1C(=O)CN(C)C(=O)CN(C)C(=O)[C@H](C2CC(F)(F)C2)NC(=O)[C@H](CC(C)C)N(C)C(=O)C[C@@H](C(=O)N(C)C)N(C)C(=O)[C@H](C2CCCC2)N(C)C(=O)C2(CCCC2)NC(=O)[C@@H]2CCCN2C(=O)[C@H](CCc2cc(F)c(C(F)(F)F)c(F)c2)NC(=O)CN(C)C(=O)[C@@H]1Cc1ccc(C(F)(F)F)cc1 [PP0748] ([NMeL][X16][Sar][Sar][NPrPhe(4-CF3)][Sar][hPhe(3,5-F2-4-CF3)]P[Ac5c][NMeGly(cPent)][NMeD]-NMe2; lactam N-11) | 10.7 |  |  | B (a compound having 3 or more and less than 10 is denoted as B) | B (a compound having 3 or more and less than 10 is denoted as B) |  | 
8 | CC[C@@H]1C[C@H]2C(=O)NC3(CCCC3)C(=O)N(C)[C@@H](C3CCCC3)C(=O)N(C)[C@H](C(=O)N(C)CC)CC(=O)N(C)[C@@H](C)C(=O)N[C@@H]([C@@H](C)CC)C(=O)N(C)CC(=O)N(C)[C@H]3C/C=C\CCN(C3=O)[C@@H](Cc3ccc(C(F)(F)F)cc3)C(=O)N(C)CC(=O)N[C@@H](CCc3cc(F)c(C(F)(F)F)c(F)c3)C(=O)N2C1 [PP2271] | 60.6 |  |  | A (a compound having 10 or more and less than 20 is denoted as A) | A (a compound having 10 or more and less than 20 is denoted as A) |  | 

More lines, in order of falling IC50 [3], values ahead:

Row | IC50 [3] [nM] | Compound | NRAS /KRAS [1, 4] | HRAS /KRAS [2, 5] | NRAS /KRAS [1, 6] | HRAS /KRAS [2, 7] | NRAS /KRAS [1, 8] | HRAS /KRAS [2, 9]
9 | 2440 | CC[C@H](C)[C@@H]1NC(=O)[C@H](CC(C)C)N(C)C(=O)C[C@@H](C(=O)N2CCOCC2)NC(=O)[C@H](C2CCCC2)N(C)C(=O)C2(CCCC2)NC(=O)[C@@H]2CCCN2C(=O)[C@H](CCc2cc(F)c(C(F)(F)F)c(F)c2)NC(=O)CN(C)C(=O)[C@H](Cc2ccc(C(F)(F)F)cc2)N2CCCCC[C@@H](C2=O)N(C)C(=O)CN(C)C1=O [PP0479] |  |  | B (a compound having 3 or more and less than 10 is denoted as B) | B (a compound having 3 or more and less than 10 is denoted as B) |  | 
10 | 132 | CCO[C@@H]1C[C@H]2C(=O)NC3(CC(C)(C)C3)C(=O)N(C)[C@@H](C3CCCC3)C(=O)N(C)[C@H](C(C)C)CC(=O)N(C)[C@@H](CC)C(=O)N[C@@H]([C@@H](C)CC)C(=O)N(C)CC(=O)N(C)[C@H]3C/C=C\CCN(C3=O)[C@@H](CC3CCCCC3)C(=O)N(C)CC(=O)N[C@@H](CCc3cc(F)c(C(F)(F)F)c(F)c3)C(=O)N2C1 [PP1603] |  |  |  |  | B (a compound having 3 or more and less than 10 is denoted as B) | B (a compound having 3 or more and less than 10 is denoted as B)
11 | 62.1 | CC[C@H](C)[C@@H]1NC(=O)[C@H](CC(C)C)N(C)C(=O)C[C@@H](C(=O)N(C)C)N(C)C(=O)[C@H](C2CCCC2)N(C)C(=O)C2(CCCC2)NC(=O)[C@@H]2CCCN2C(=O)[C@H](CCc2cc(F)c(C(F)(F)F)c(F)c2)NC(=O)CN(C)C(=O)[C@H](Cc2ccc(C(F)(F)F)cc2)N2CCCCC[C@@H](C2=O)N(C)C(=O)CN(C)C1=O [PP0507] |  |  | B (a compound having 3 or more and less than 10 is denoted as B) | B (a compound having 3 or more and less than 10 is denoted as B) |  | 
12 | 40.7 | CCCN1C(=O)[C@@H]2CCN2C(=O)[C@H](C)N(C)C(=O)[C@H]([C@@H](C)CC)NC(=O)[C@H](CC(C)C)N(C)C(=O)C[C@@H](C(=O)N(C)C)N(C)C(=O)[C@H](C2CCCC2)N(C)C(=O)C2(CCC2)NC(=O)[C@@H]2CCCN2C(=O)[C@H](CCc2ccc(C(F)(F)F)c(Cl)c2)NC(=O)CN(C)C(=O)[C@@H]1COCCC(C)C [PP1820] ([NMeL]I[NMeA][Aze][X8][Sar][hPhe(3-Cl-4-CF3)]P[Ac4c][NMeGly(cPent)][NMeD]-NMe2; lactam N-11) |  |  |  |  | C (A compound having a KD ratio of 0.1 or more and less than 3 is denoted as C) | C (A compound having a KD ratio of 0.1 or more and less than 3 is denoted as C)
13 | 27.7 | CCO[C@@H]1C[C@H]2C(=O)NC3(CCC3)C(=O)N(C)[C@@H](C3CCCC3)C(=O)N(C)[C@H](C(=O)N3CCOCC3)CC(=O)N(C)[C@@H](CC(C)C)C(=O)N[C@@H]([C@@H](C)CC)C(=O)N(C)CC(=O)N(C)[C@H]3CCCCCN(C3=O)[C@@H](Cc3ccc(F)cc3Cl)C(=O)N(C)CC(=O)N[C@@H](CCc3cc(F)c(C(F)(F)F)c(F)c3)C(=O)N2C1 [PP0918] | B (a compound having 3 or more and less than 10 is denoted as B) | B (a compound having 3 or more and less than 10 is denoted as B) |  |  |  | 
14 | 1.6 | CCO[C@@H]1C[C@H]2C(=O)NC3(CCCC3)C(=O)N(C)[C@@H](C3CCCC3)C(=O)N(C)[C@H](C(=O)N3CCOCC3)CC(=O)N(C)[C@@H](CC(C)C)C(=O)N[C@@H]([C@@H](C)CC)C(=O)N(C)CC(=O)N(C)[C@H]3CCCCN(C3=O)[C@@H](Cc3ccc(C(F)(F)F)cc3)C(=O)N(C)CC(=O)N[C@@H](CCc3cc(F)c(C(F)(F)F)c(F)c3)C(=O)N2C1 [PP0554] |  |  | B (a compound having 3 or more and less than 10 is denoted as B) | B (a compound having 3 or more and less than 10 is denoted as B) |  | 
